The values below come from publication PMC8147254, “Efflux at the Blood-Brain Barrier Reduces the Cerebral Exposure to Ochratoxin A, Ochratoxin α, Citrinin and Dihydrocitrinone” (Toxins, 2021).

Like-named read-outs stand apart in the source and are kept apart here.

Usually Papp A→B stands for the apparent permeability from the apical to the basolateral side of a cell layer.

Data set [1] deals with PBCEC. The experiment in a line: Electrical capacitance cCL of the cell monolayer by impedance spectroscopy. The settings on record: 1 µM apical, referred to t = 0 h, n = 9 (negative control 99 ± 2%). The format is cell-based, porcine. As to the method: In order to study the barrier integrity PBCEC were incubated with 1 µM OTA, OTα, CIT and DHCIT in the apical compartment (blood side) of Transwell® filter inserts for 48 h. The TEER values as well as the electrical capacitance (cCL) were monitored by cellular impedance spectroscopy (Figure 4A,B). As a negative control the permeability of […] was measured after 48 h. Sucrose is not transported by any cellular transport protein and represents a marker for an intact BBB.
Besides the TEER values, the electrical capacitance cCL of the cell monolayer was also monitored for 48 h (Figure 4B). As cellular bilayer membranes behave like an electrical capacitor, they influence the cellular impedance. Changes in cCL are markers for the integrity of the cells. Weak cytotoxic effects lead to a reduction of cCL, whereas strong cytotoxic effects result in an exponential increase in cCL to more than 150% due to the usually observed detachment of the cells from the surface.
For barrier integrity, TEER values were monitored using a cellZscope® cellular impedance spectrometer (nanoAnalytics, Münster, Germany). […]. The detailed protocols can be found in the Supplementary Materials.
After 48 h the medium was […]
The Transwell® filters were briefly […]
equipped with a 24 12‐well Transwell® filter setup. Each well was previously filled with 1650 μL serum‐free medium. Transendothelial electrical resistances (TEER) were analyzed using the cellZscope® device. Only Transwell® filters with TEER values of more than 600 Ω∙cm² and electrical […]
76 μ L of the medium in the apical […]
concentration of the mycotoxins was 1 μM at the beginning of the mycotoxin incubation. The final solvent concentration was 0.1% ACN. […]
and 48 h after toxin application. […]

In data set [2] the test system is PBCEC. It counts as cell-based, porcine. The settings on record: pig. As to the method:
In order to study the barrier integrity PBCEC were incubated with 1 µM OTA, OTα, CIT and DHCIT in the apical compartment (blood side) of Transwell® filter inserts for 48 h. The TEER values as well as the electrical capacitance (cCL) were monitored by cellular impedance spectroscopy (Figure 4A,B). As a negative control the permeability of […] was measured after 48 h. Sucrose is not transported by any cellular transport protein and represents a marker for an intact BBB. […]
6.1. Cellular impedance spectroscopy […]
6.2. […] permeability
As additional method to control the barrier tightness the permeability of radiolabeled […]
across the Transwell® inserts was measured. Since 14C sucrose is not transported or taken up by endothelial cells, the permeability of 14C sucrose is an appropriate parameter for barrier integrity.
After 48 h exposure to the mycotoxins 1 μ Ci (37 kBq) […] (Amersham, Buckinghamshire, UK) was applied to the apical compartment. Samples from the basolateral compartment were collected after 10, 20, 30, 40, 60 and 80 min, diluted in scintillation fluid and analyzed with a scintillation counter as previously described.

Data set [3] in a line: in vitro. As to conditions: pig. As to the method: (§1) For transfer studies from the apical (blood) side to the basolateral compartment (brain side), 1 µM of mycotoxins were applied on the apical side of the Transwell® filter compartment. Over 48 h, OTA, OTα, CIT, and DHCIT were quantified at eight points in time in both compartments by HPLC-MS/MS in order to investigate the transfer and potential metabolism of the applied compounds.
(§2) Both devices were operated with Analyst 1.6.2 software (SCIEX Germany GmbH, Darmstadt, Germany). Chromatographic separation of OTA, OTα, CIT, and DHCIT was performed on a 100 mm × 2.1 mm Halo RP-Amide 2.7 µm column (Advanced Materials Technology, Wilmington, NC, USA) equipped with an Ultra filter (KrudKatcher, Phenomenex, Aschaffenburg, Germany) at 40 °C using a gradient of ACN+1% formic acid (FA) (Solvent A) and H2O+1% FA (solvent B) at a flow rate of 250 µL/min. […] Afterwards, the column was re-equilibrated for 4 min. An injection volume of 5 µL was used. A diverter valve was used to exclude the first 5 min of the HPLC run from the mass spectrometer and reduce matrix contamination. The Ion Drive Turbo V ion source was heated to 400 °C. Further conditions were curtain gas (CUR) 35 psi N2, nebuliser gas (GS1) 45 psi N2, heater gas (GS2) 55 psi N2, and ion spray voltage 4500 V in positive and −4500 V in negative ionization mode; each MRM transition was monitored for 5 ms. Detailed mass spectrometer settings are given in the Supplementary Materials of this article.
(§3) The permeability coefficients p were calculated according to (1) as described in detail in [15]:(1) p[cm/s]=cbas[%]/[…]·Vap[cm³]/A[cm^2]·t[s] where cbas is the mycotoxin concentration in the basolateral compartment at a certain time t [s]. The initial concentration in the apical compartment is c0 h,ap and Vap is the volume of the compartment at the beginning of the experiment. A is the area of the filter insert membrane. The resulting permeability of the mycotoxin across the cell monolayer pc was calculated as shown in (2):(2) 1/pc [cm/s]=1/pc+f [cm/s][…]1/pf[cm/s] where pc+f is the permeability coefficient of the transfer study and pf the permeability coefficient of the cell-free polycarbonate filter membrane. […]
(§4) serum) and centrifugation at 220 × g at 20 °C for 10 min the supernatant was removed. Fresh complete medium was added and the cell pellet was gently resuspended twice to a final concentration of 150,000 cells/mL. 100 μ L of this suspension were seeded on rat‐tail collagen coated 96‐well plates (rat‐ tail collagen was isolated as described previously) resulting in 15,000 cells per well. PBCEC were incubated at 37 °C, 5% CO2 in a saturated humidified atmosphere. After 48 h the medium was replaced with serum‐free medium (DMEM/Ham’s F‐12 with 100 U/mL penicillin, 100 μg/mL […]
(§5) Aldrich, Steinheim, Germany)). […]
(§6) The thawing and seeding procedure was performed according to the protocol already described for the viability test as previously published. Instead of using 96‐well plates, 500 μL PBCEC suspension (500,000 cells/mL) were seeded in the upper (apical) compartment of a 12‐well Transwell®

For data set [4], the system named is PBCEC monolayer. The experiment in a line: in vitro. As to conditions: for amount in the apical compartment after 48 h, of initially applied amount / amount transferred to the basolateral compartment after 48 h, of initially applied amount: 1 µM (760 pmol) apical, n = 9. As to the method:
as §1, §2, §3, §4, §5, §6

In data set [5] the test system is PBCEC. The settings on record: 48 h.

Turning to `CC1=C2C(=CO[C@H](C)[C@H]2C)C(O)=C(C(=O)O)C1=O` [CIT, Citrinin], in data set [1], the “electrical capacitance cCL after 48 h” value is 97 ± 4%. Further, in data set [2], the “permeability pc (14C sucrose) after mycotoxin incubation” value (from here on “permeability pc (14C sucrose)”) is 0.50 ± 0.33 10^−6 cm/s. In data set [3], this compound gave an apical-to-basolateral permeability (Papp A→B) of 1.79 ± 0.4 ×10⁻⁶ cm/s. In addition, in data set [4], the “amount in the apical compartment after 48 h, of initially applied amount” value (“amount in the apical compartment” below) is given as 67 ± 3% and the “amount transferred to the basolateral compartment after 48 h, of initially applied amount” value (shortened to “amount transferred”) worked out at 40 ± 4%. In data set [4] (pig), the “permeability relative to the negative control 14C sucrose (factor)” value is listed as “ca. 4”. The cellular morphology entry in data set [5] (10 µM) is on record as “unremarkable”.

With `C[C@@H]1Cc2c(Cl)cc(C(=O)N[C@@H](Cc3ccccc3)C(=O)O)c(O)c2C(=O)O1` [OTA, Ochratoxin A], the “electrical capacitance cCL after 48 h” value in data set [1] came to 96 ± 4%. Further, the “permeability pc (14C sucrose)” value in data set [2] is listed as 0.81 ± 0.17 10^−6 cm/s. Besides, the apparent permeability from apical to basolateral (Papp A→B) in data set [3] was determined as 0.38 ± 0.08 ×10⁻⁶ cm/s. Besides, in data set [4], the “amount in the apical compartment” value came out at 96 ± 7% and the “amount transferred” value stood at 14 ± 3%. The cellular morphology result in data set [5] (100 nM and lower concentrations) is recorded as “no morphological changes”. In data set [5] (10 µM), the cellular morphology entry is on record as “very similar morphological changes of the PBCEC as they were observed for 10 µM T-2 toxin”.

Turning to `C[C@@H]1Cc2c(Cl)cc(C(=O)O)c(O)c2C(=O)O1` [OTα, ochratoxin α], in data set [1], the “electrical capacitance cCL after 48 h” value is recorded as 98 ± 2%. Further, in data set [2], the “permeability pc (14C sucrose)” value is listed as 0.56 ± 0.24 10^−6 cm/s. In addition, the Papp A→B in data set [3] is 0.68 ± 0.15 ×10⁻⁶ cm/s. In data set [4], the “amount in the apical compartment” value is given as 86 ± 6% and the “amount transferred” value amounted to 19 ± 4%. In addition, the cellular morphology entry in data set [5] (10 µM) is given as “unremarkable”.

For the compound `Cc1c(O)c(C(=O)O)c(O)c2c1[C@H](C)[C@@H](C)OC2=O` [DHCIT, dihydrocitrinone], in data set [1], the “electrical capacitance cCL after 48 h” value is listed as 99 ± 4%. Besides, the “permeability pc (14C sucrose)” value in data set [2] is 0.38 ± 0.17 10^−6 cm/s. This compound returned a Papp A→B in data set [3] of 0.51 ± 0.14 ×10⁻⁶ cm/s. Besides, in data set [4], the “amount in the apical compartment” value was found to be 87 ± 13% and the “amount transferred” value came to 14 ± 3%. Moreover, in data set [5] (10 µM), the cellular morphology result is reported as “unremarkable”.
